Data taken from US20090285773A1, “Hepatitis C Virus Inhibitors” (Bristol-Myers Squibb Company, priority 2008, published 2009).

Biological target: HCV NS3/4A protease complex, BMS strain (genotype 1a) (UniProt P27958, species not given/STRAIN_BMS)
Test: FRET peptide assay, HCV NS3/4A protease complex, BMS strain
Type: biochemical
Settings: read-out: IC50 against the NS3/4A BMS strain in the enzyme assay
Excerpt: HCV NS3 protease complexes, derived from the BMS strain, H77 strain or J4L6S strain, were generated, as described below. These purified recombinant proteins were generated for use in a homogeneous assay (see below) to provide an indication of how effective compounds of the present disclosure would be in inhibiting HCV NS3 proteolytic activity.
Serum from an HCV-infected patient was obtained from Dr. T. Wright, San Francisco Hospital. […]
In order to monitor HCV NS3/4A protease activity, an NS3/4A peptide substrate was used. […] The peptide also contains a fluorescence donor, EDANS, near one end of the peptide and an acceptor, DABCYL, near the other end. The fluorescence of the peptide is quenched by […] resonance energy transfer (RET) between the donor and the acceptor, but as the NS3 protease cleaves the peptide the products are released from RET quenching and the fluorescence of the donor becomes apparent.
The peptide substrate was incubated with one of the three recombinant NS3/4A protease complexes, in the absence or presence of a compound of the present disclosure. The inhibitory effects of a compound were determined by monitoring the formation of fluorescent reaction product in real time using a Cytofluor Series 4000. […]

Chain of HCV NS3/4A protease complex, BMS strain (genotype 1a) (P27958 1027-1657, change not shown, one chain of several): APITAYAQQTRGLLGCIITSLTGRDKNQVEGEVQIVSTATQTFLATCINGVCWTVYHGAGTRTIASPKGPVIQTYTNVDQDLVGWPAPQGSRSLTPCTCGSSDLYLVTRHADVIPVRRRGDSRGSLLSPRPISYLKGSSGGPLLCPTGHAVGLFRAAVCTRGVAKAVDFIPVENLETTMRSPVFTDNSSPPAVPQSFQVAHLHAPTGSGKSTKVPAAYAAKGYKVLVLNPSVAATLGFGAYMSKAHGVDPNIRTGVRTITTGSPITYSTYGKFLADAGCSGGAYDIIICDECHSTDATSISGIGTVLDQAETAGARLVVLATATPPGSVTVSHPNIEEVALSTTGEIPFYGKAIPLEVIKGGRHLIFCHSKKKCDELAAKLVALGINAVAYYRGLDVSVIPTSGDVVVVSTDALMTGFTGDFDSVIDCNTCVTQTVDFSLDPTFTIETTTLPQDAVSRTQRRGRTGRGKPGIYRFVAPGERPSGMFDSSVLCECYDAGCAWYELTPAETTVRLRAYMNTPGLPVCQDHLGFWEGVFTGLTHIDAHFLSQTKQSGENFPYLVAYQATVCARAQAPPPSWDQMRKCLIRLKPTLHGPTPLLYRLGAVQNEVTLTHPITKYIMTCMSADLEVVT

Compound: COc1ccc2c(O[C@@H]3C[C@H]4C(=O)N[C@]5(C(=O)NS(=O)(=O)C6CC6)C[C@H]5/C=C\CCCCC[C@H](Nc5ccc(OC)nc5)C(=O)N4C3)nccc2c1 (single isomer, unassigned) [Compound 1]
- IC50: 8.7 nM
